The MIC50 is the lowest concentration that inhibits either 50% of growth or 50% of the strains tested, depending on the study. Usually IC50 stands for the concentration needed to halve the response being measured. In general, half-life refers to how long it takes for the measured level to halve. In general, clearance refers to a measure of how efficiently the substance is removed, as volume per time. For orientation: bioavailability means dose-corrected exposure relative to a reference, in per cent.

Values after ≈ are worked out from the molar mass of the structure shown.

Consider 20 compounds from ChEMBL document CHEMBL6114933, “Discovery of 3-acyl-2-anilino-1,4-dihydroquinolin-4-one derivatives as potential inhibitors of methicillin-resistant Staphylococcus aureus” (Bioorg Med Chem Lett, 2025).

The subject of data set [1] is Staphylococcus aureus. Description: Antibacterial activity against drug-resistant Staphylococcus aureus USA300 JE2 assessed as inhibition of bacterial growth. It is filed as functional.
The test system of data set [2] is Staphylococcus aureus. Briefly: Antibacterial activity against drug-sensitive Staphylococcus aureus ATCC25923 assessed as inhibition of bacterial growth. It is filed as functional.
In data set [3] the test system is Staphylococcus aureus. Description: Ex vivo antibacterial activity against methicillin-resistant Staphylococcus aureus assessed as inhibition of bacterial growth by cell infection model. It is filed as functional.
Data set [4] is described as follows: Cytotoxicity against human HepG2 cells. It is filed as toxicity, cell-based.
Data set [5] can be described thus: Metabolic stability in human liver microsomes assessed as parent compound remaining measured after 30 mins. Type of data set: ADME, Microsome. Particulars: read-out: Stability.
A short description of data set [6]: Metabolic stability in rat liver microsomes assessed as parent compound remaining measured after 30 mins. Type of data set: ADME, Microsome. The conditions noted are these: read-out: Stability. For orientation: Microsomes from liver hold many membrane-bound enzymes, among them those of drug oxidation.
The nature of data set [7]: Metabolic stability in mouse liver microsomes parent compound remaining measured after 30 mins. The conditions noted are these: read-out: Stability. It is filed as ADME, Microsome.
Data set [8] is described as follows: Cytotoxicity against African green monkey Vero cells. Type of data set: toxicity, cell-based, Chlorocebus sabaeus.
The nature of data set [9]: Cytotoxicity against HFL1 cells. It is filed as toxicity, cell-based. The conditions noted are these: human.
A short description of data set [10]: Cytotoxicity against mouse L929 cells. It is filed as toxicity, cell-based.
Data set [11] in a line: Cytotoxicity against CHO-K1 cells. It is filed as toxicity, cell-based, Cricetulus griseus. Particulars: Chinese hamster.
Data set [12] in a line: Cytotoxicity against mouse NIH3T3 cells. Type of data set: toxicity, cell-based.
A short description of data set [13]: Half life in rat at 2 mg/kg, iv. Particulars: in vivo. Type of data set: ADME, organism-based.
Data set [14] is described as follows: AUC(0 to 24 hrs) in rat at 2 mg/kg, iv. Particulars: in vivo. Type of data set: ADME, organism-based.
The nature of data set [15]: AUC (0 to infinity) in rat at 2 mg/kg, iv. Type of data set: ADME, organism-based. The conditions noted are these: in vivo.
Data set [16] is described as follows: Clearance in rat at 2 mg/kg, iv. Type of data set: ADME, organism-based. The conditions noted are these: in vivo.
Data set [17] in a line: Oral bioavailability in rat at 5 mg/kg. Type of data set: ADME, organism-based. The conditions noted are these: in vivo.
The target of data set [18] is Voltage-gated inwardly rectifying potassium channel KCNH2 (Homo sapiens, UniProt Q12809). Description: Inhibition of hERG by binding assay. It is filed as toxicity. (hERG is a cardiac potassium channel; its block is linked to QT prolongation.)
Voltage-gated inwardly rectifying potassium channel KCNH2, sequence (Q12809 whole entry): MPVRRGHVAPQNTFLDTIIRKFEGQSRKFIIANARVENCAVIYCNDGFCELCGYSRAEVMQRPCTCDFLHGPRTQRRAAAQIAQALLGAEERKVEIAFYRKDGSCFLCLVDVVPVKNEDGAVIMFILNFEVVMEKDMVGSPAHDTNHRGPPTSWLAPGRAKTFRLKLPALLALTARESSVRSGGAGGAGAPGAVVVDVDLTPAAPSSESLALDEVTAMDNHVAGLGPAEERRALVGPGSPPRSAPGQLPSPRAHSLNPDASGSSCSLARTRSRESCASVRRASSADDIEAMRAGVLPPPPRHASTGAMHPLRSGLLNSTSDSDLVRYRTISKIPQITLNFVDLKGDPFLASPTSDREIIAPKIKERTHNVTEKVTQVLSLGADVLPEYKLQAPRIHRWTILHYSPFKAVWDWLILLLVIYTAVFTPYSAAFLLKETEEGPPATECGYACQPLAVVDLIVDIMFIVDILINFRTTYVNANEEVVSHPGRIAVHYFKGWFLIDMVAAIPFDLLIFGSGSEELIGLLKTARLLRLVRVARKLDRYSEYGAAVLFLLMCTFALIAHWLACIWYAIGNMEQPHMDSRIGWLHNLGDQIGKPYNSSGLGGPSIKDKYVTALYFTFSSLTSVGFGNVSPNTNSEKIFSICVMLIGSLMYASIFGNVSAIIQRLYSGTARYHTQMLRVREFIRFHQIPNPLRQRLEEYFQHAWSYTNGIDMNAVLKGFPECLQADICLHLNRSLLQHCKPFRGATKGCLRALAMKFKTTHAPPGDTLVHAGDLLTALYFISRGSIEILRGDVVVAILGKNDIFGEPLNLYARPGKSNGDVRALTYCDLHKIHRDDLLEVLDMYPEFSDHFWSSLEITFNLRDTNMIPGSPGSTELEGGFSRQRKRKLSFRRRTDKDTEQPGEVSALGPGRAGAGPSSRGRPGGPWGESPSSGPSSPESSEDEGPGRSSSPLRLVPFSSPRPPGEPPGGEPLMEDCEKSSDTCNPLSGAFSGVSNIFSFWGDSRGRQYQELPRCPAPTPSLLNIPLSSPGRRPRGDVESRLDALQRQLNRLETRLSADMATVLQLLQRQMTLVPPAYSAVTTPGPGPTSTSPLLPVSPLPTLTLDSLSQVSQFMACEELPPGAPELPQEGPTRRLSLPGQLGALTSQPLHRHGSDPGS
Data set [19] in a line: Cmax in rat at 5 mg/kg, po or 2 mg/kg, iv. It is filed as ADME, organism-based. Particulars: in vivo.

Regarding `CC(C)C(=O)c1c(Nc2ccc(F)cc2F)[nH]c2c(Cl)cc(Cl)c(Cl)c2c1=O`, the MIC50 was determined as 0.06 µM (≈ 0.0267 µg/mL) in the data set with Staphylococcus aureus [1], 0.05 µM (≈ 0.0223 µg/mL) with Staphylococcus aureus [2] and 3.9 µM (≈ 1.74 µg/mL) in the data set with Staphylococcus aureus [3]. Besides, the IC50 was more than 256 µM in [4]; 61.3 µM in data set [8]; 10.6 µM in data set [9]; more than 100 µM in [10]; 4.9 µM in data set [11]; 67.5 µM in [12]. This compound also gave a concentration for half-maximal inhibition (IC50) in [18] of 60 µM. In addition, the remaining at 0.5 h in data set [5] was determined as 95.6%; in data set [6] it was 81.9%; in data set [7] it was 68.1%. The compound further had a half-life in data set [13] of 25.6 h. Besides, the AUC was determined as 31.97 uM.hr/ml in data set [14] and 175.71 uM.hr/ml in [15]. This compound showed a clearance in data set [16] of 0.5 mL/min/kg. Moreover, the bioavailability in data set [17] was more than 99.9%. In [19], this compound had a Cmax of 5.91 uM/ml.

Regarding `CC(=O)c1c(Nc2ccc(Cl)cc2Cl)[nH]c2c(Cl)ccc(C(F)(F)F)c2c1=O`, the MIC50 in the data set on Staphylococcus aureus [1] is 0.41 µM (≈ 0.184 µg/mL); with Staphylococcus aureus [2], 0.44 µM (≈ 0.198 µg/mL); in the data set with Staphylococcus aureus [3] it was 15.2 µM (≈ 6.83 µg/mL).

As to `CC(=O)c1c(N2CCOCC2)[nH]c2c(F)cc(F)cc2c1=O`, the MIC50 in the data set with Staphylococcus aureus [1] and in the data set on Staphylococcus aureus [2] was more than 20 µM each time.

In the case of `CC(=O)c1c(N2CCCCC2)[nH]c2c(F)cc(F)cc2c1=O`, the MIC50 in the data set on Staphylococcus aureus [1] and in the data set on Staphylococcus aureus [2] was more than 20 µM each time.

As to `CC(=O)c1c(Nc2ccc(Cl)cc2Cl)[nH]c2c(F)cc(F)cc2c1=O`, the MIC50 in the data set on Staphylococcus aureus [1] is 0.39 µM (≈ 0.149 µg/mL); with Staphylococcus aureus [2], 0.41 µM (≈ 0.157 µg/mL); in the data set with Staphylococcus aureus [3] it was 10.1 µM (≈ 3.88 µg/mL).

For the compound `CCN(CC)CCCC(C)Nc1[nH]c2c(F)cc(F)cc2c(=O)c1C(C)=O` (centres undefined), the MIC50 in the data set on Staphylococcus aureus [1] and in the data set on Staphylococcus aureus [2] was more than 20 µM throughout.

Turning to `CC(C)C(=O)c1c(Nc2ccc(F)cc2F)[nH]c2c(F)cc(F)cc2c1=O`, the MIC50 is 1.27 µM (≈ 0.48 µg/mL) with Staphylococcus aureus [1], 1.36 µM (≈ 0.515 µg/mL) in the data set with Staphylococcus aureus [2] and 10 µM (≈ 3.79 µg/mL) with Staphylococcus aureus [3].

In the case of `CC(C)C(=O)c1c(Nc2ccc(F)c(F)c2F)[nH]c2c(Cl)cc(Cl)c(Cl)c2c1=O`, the MIC50 in the data set on Staphylococcus aureus [1] amounted to 0.05 µM (≈ 0.0232 µg/mL); in the data set on Staphylococcus aureus [2] it was 0.04 µM (≈ 0.0185 µg/mL); with Staphylococcus aureus [3], 0.57 µM (≈ 0.264 µg/mL). In data set [4], this compound registered an IC50 of 31.2 µM.

For `CC(=O)c1c(NCc2ccc(F)cc2)[nH]c2c(F)cc(F)cc2c1=O`, the MIC50 in the data set on Staphylococcus aureus [1] and with Staphylococcus aureus [2] was more than 20 µM each time.

As for `CC(=O)c1c(Nc2ccc(Cl)cc2Cl)[nH]c2c(Cl)cc(Cl)c(Cl)c2c1=O`, the MIC50 in the data set with Staphylococcus aureus [1] came to 0.27 µM (≈ 0.122 µg/mL); in the data set on Staphylococcus aureus [2], 0.28 µM (≈ 0.126 µg/mL); in the data set on Staphylococcus aureus [3], 34.8 µM (≈ 15.7 µg/mL).

`COc1ccc(CNc2[nH]c3c(F)cc(F)cc3c(=O)c2C(C)=O)cc1`: the MIC50 with Staphylococcus aureus [1] and with Staphylococcus aureus [2] was more than 20 µM throughout.

In the case of `CC(=O)c1c(Nc2cc(F)cc(F)c2)[nH]c2c(F)cc(F)cc2c1=O`, the MIC50 in the data set with Staphylococcus aureus [1] and in the data set with Staphylococcus aureus [2] was more than 20 µM throughout.

Consider `CC(C)C(=O)c1c(Nc2ccc(F)c(F)c2F)[nH]c2c(F)cc(F)cc2c1=O`, for which the results for the MIC50 with Staphylococcus aureus [1], with Staphylococcus aureus [2] and with Staphylococcus aureus [3] were 0.2 µM (≈ 0.0793 µg/mL), 0.18 µM (≈ 0.0713 µg/mL) and 0.71 µM (≈ 0.281 µg/mL), respectively. Moreover, the values for the IC50 in [4], in data set [8] and in data set [18] were 63.7 µM, 86.1 µM and more than 100 µM, respectively. Also, the AUC in [14] amounted to 28.3 uM.hr/ml; in [15] it was 28.9 uM.hr/ml. In addition, the CL in data set [16] (iv, 2 mg/kg) worked out at 1.2 mL/min/kg. Besides, the bioavailability in data set [17] was more than 55.8%. This compound yielded a Cmax in data set [19] of 2.32 uM/ml.

Take `CC(C)C(=O)c1c(Nc2ccc(Cl)cc2Cl)[nH]c2c(F)cc(F)cc2c1=O`: the MIC50 in the data set on Staphylococcus aureus [1] was 0.19 µM (≈ 0.0781 µg/mL); in the data set on Staphylococcus aureus [2], 0.2 µM (≈ 0.0822 µg/mL); in the data set with Staphylococcus aureus [3] it was 1.45 µM (≈ 0.596 µg/mL). Moreover, the IC50 in [4] was 39 µM.

`CC[C@H]1OC(=O)[C@H](C)[C@@H](O[C@H]2C[C@@](C)(OC)[C@@H](O)[C@H](C)O2)[C@H](C)[C@@H](O[C@@H]2O[C@H](C)C[C@H](N(C)C)[C@H]2O)[C@](C)(O)C[C@@H](C)C(=O)[C@H](C)[C@@H](O)[C@]1(C)O` [ERYTHROMYCIN]: in the data set on Staphylococcus aureus [2], the MIC50 stood at 0.74 µM (≈ 0.543 µg/mL).

Take `COc1ccc(Nc2[nH]c3c(F)cc(F)cc3c(=O)c2C(C)=O)cc1`: the MIC50 in the data set with Staphylococcus aureus [1] and in the data set on Staphylococcus aureus [2] was more than 20 µM in each case.

Turning to `CC(=O)c1c(Nc2ccc(F)cc2F)[nH]c2c(F)cc(F)cc2c1=O`, the MIC50 in the data set on Staphylococcus aureus [1] is 3.84 µM (≈ 1.35 µg/mL); in the data set with Staphylococcus aureus [2] it was 4.41 µM (≈ 1.54 µg/mL); with Staphylococcus aureus [3], 9.48 µM (≈ 3.32 µg/mL).

For the compound `CN[C@H](CC(C)C)C(=O)N[C@H]1C(=O)N[C@@H](CC(N)=O)C(=O)N[C@H]2C(=O)N[C@H]3C(=O)N[C@H](C(=O)N[C@H](C(=O)O)c4cc(O)cc(O)c4-c4cc3ccc4O)[C@H](O)c3ccc(c(Cl)c3)Oc3cc2cc(c3O[C@@H]2O[C@H](CO)[C@@H](O)[C@H](O)[C@H]2O[C@H]2C[C@](C)(N)[C@H](O)[C@H](C)O2)Oc2ccc(cc2Cl)[C@H]1O` [VANCOMYCIN], in the data set with Staphylococcus aureus [2], the MIC50 is 1.97 µM (≈ 2.86 µg/mL).

In the case of `CC(=O)c1c(Nc2ccc(F)c(F)c2F)[nH]c2c(F)cc(F)cc2c1=O`, the MIC50 was 0.95 µM (≈ 0.35 µg/mL) with Staphylococcus aureus [1], 1.11 µM (≈ 0.409 µg/mL) in the data set with Staphylococcus aureus [2] and 6.79 µM (≈ 2.5 µg/mL) with Staphylococcus aureus [3].

For the compound `CC(=O)c1c(NCc2ccc(F)cc2F)[nH]c2c(F)cc(F)cc2c1=O`, the MIC50 in the data set on Staphylococcus aureus [1] and in the data set with Staphylococcus aureus [2] was more than 20 µM throughout.
